Legend:
[1] = tested on: patients with bipolar II disorder; assay: Continuous Performance Test (Conner's CPT II), sustained attention; format: in vivo, human; conditions: 12 weeks versus baseline, result in words
Description: The present invention recruited patients diagnosed with bipolar II disorder (BD-II). The patients were diagnosed by psychiatrists using the improved Chinese version of the Schedule of Affective Disorder and Schizophrenia-Life Time (SADS-L) with good inter-rater reliability and the Diagnostic and Statistical Manual of Mental Disorders, Fourth Edition, Text Revision (DSM-IV-TR) to confirm that the patient meets the integration points of bipolar II disorder in the DSM-IV-TR.
The purpose of the test of the present invention was to test whether dextromethorphan (DM) and sodium valproate (trade name: Depakine) could improve the cognitive function of patients. Therefore, the patients with bipolar II disorder in the present invention were divided into two groups: one group was the patients taking dextromethorphan and sodium valproate together (BDDM), and the other group was the patients taking sodium valproate and placebo (BDPl). Before the patients of the two group took the drug, the present invention first used the following evaluation test to perform a basic evaluation of the patients of the two groups.
The present invention used the computer version of Conner's CPT II 20 which was used to detect the sustained attention of the patients. In the reliability of Conner's CPT II, the split-half reliability ranged from 0.66 to 0.95, and the retest reliability after three months was […]. […]

[2] = Drug concentration in the plasma of the patients after the end of the treatment; conditions: human, in vivo, after 12 weeks of 1 to 30 mg dextromethorphan per day
Procedure: Both groups were treated with drug. The course of treatment for the group taking dextromethorphan and sodium valproate (BDDM group) was 1 to 30 mg of dextromethorphan and 500 to 2500 mg of sodium valproate per day for 12 weeks. The course of treatment for the group taking sodium valproate and placebo (BDPl group) was 500-2500 mg of sodium valproate and placebo per day for 12 weeks. After the end of the treatment, the concentrations of dextromethorphan in the plasma of the patients were about 10-50 ng/ml (0.05-0.2 μM), and the concentrations of sodium valproate in the plasma were about 50-100 μg/dl.

## COc1ccc2c(c1)[C@]13CCCC[C@@H]1[C@H](C2)N(C)CC3 [dextromethorphan]
[1]
  sustained attention (scores of CPT) after the end of the course of treatment: improvement in sustained attention was due to the efficacy of dextromethorphan
[2]
  concentration at 12 weeks: 10 to 50 ng/mL
[2]; value in brackets
  concentration at 12 weeks: 50 to 200 nM

Source: patent US20250375437A1, “METHODS FOR IMPROVING COGNITIVE FUNCTION” (priority 2024, published 2025)
